{"source": "patent US10206944B2", "about": "“Chondroitin for use in medicine” (ALTERGON S.A., priority 2012, dated 2019)", "key": {"[1]": {"system": "mice or Sprague Dawley rats", "test": "Acute toxicity study", "type": "in vivo, mouse and rat", "protocol": "Acute toxicity study—The study was conducted on two animal models, the mouse and rat, to which chondroitin was administered orally (p.o.) or intravenously (i.v.). For each experiment the animals (mice or Sprague Dawley rats) were divided into 5 groups of 20 (10 males and 10 females) which received p.o. or i.v. chondroitin at doses ranging from 250 to 2,000 mg/Kg for oral administration and 20 to 160 mg/Kg for intravenous administration; the volume administered was 10 mL/Kg for p.o. administration and 5 mL/Kg for i.v. administration.\nAt the end of the treatment the animals were euthanized and a complete autopsy was performed."}, "[2]": {"system": "Escherichia coli strain sensitive to the action of mutagenic substances", "test": "DNA-repair test", "type": "cell-based", "conditions": "highest doses, with and without metabolic activation", "protocol": "In vitro test, DNA-repair test—The DNA alteration test was conducted with a strain of Escherichia coli sensitive to the action of mutagenic substances. In the study, mitomycin C was used as positive control and penicillin G as negative control."}, "[3]": {"system": "rats (Sprague Dawley)", "test": "Chronic toxicity study, 26 weeks", "type": "in vivo", "conditions": "rat", "protocol": "Chronic toxicity study—This study was conducted on rats (Sprague Dawley) treated daily for 26 weeks with chondroitin administered p.o. (by gavage) at doses ranging from 50 to 200 mg/Kg. The general state of health and behaviour of the treated animals were monitored daily, and weight variations, haematological status and urine were evaluated every 7 days. […] At the end of the study all animals were euthanized and an autopsy and histopathological analysis of the main organs (lungs, heart, liver, ovaries, uterus, testicles, kidneys, pituitary gland, lymph nodes and gastrointestinal tract) were conducted. None of these evaluations indicated any significant differences between the animals treated with chondroitin and the control animals which received the carrier alone."}, "[4]": {"system": "volunteers suffering from dry eye", "test": "Ophthalmic eyedrops in volunteers suffering from dry eye", "type": "in vivo, human", "protocol": "Two ophthalmic preparations were compared: a conventional one based on hyaluronic acid and one based on chondroitin, both at the concentration of 3% w/v in NaCl saline solution at pH 7.4. The eyedrops were prepared in single-dose packaging sterilised in the autoclave. […] The volunteers, of both sexes, aged between 45 and 60 years, were randomised into two groups of 15, and treated with the two types of eyedrops. Under medical control the inflammatory state of the corneal surface was evaluated at the beginning and end of the treatment, and the evaluations of the treated patients relating to tolerability, duration of the wetting effect, and visual alteration after application, were recorded. A scale of 1 to 5 was used for the clinical evaluations and the patients' evaluations, where 5 represents optimum resolution of the pathological condition and its sequelae. […]"}, "[5]": {"system": "Wistar rats", "test": "Study of fertility and reproductive capacity", "type": "in vivo, rat", "protocol": "Study of fertility and reproductive capacity—The toxicology study of the possible effects of chondroitin on male fertility and female reproductive capacity was conducted on 200 Wistar rats (160 females and 40 males), randomised into four groups, each consisting of 40 females and 10 males, treated with 0, 50, 100 or 200 mg/Kg of chondroitin. Each group of female rats was divided in turn into two sub-groups of 20 animals; the first group received the product daily from the 14th day before the start of the mating period until the 19th day of gestation, and the second received it until the 21st day after the birth. All the males were treated with chondroitin for 60 days before mating and throughout the gestation period of the females. The protocol used follows the guidelines of Directive EEC 85/571."}, "[6]": {"system": "5 strains of Salmonella typhimurium", "test": "Ames' test", "type": "cell-based", "conditions": "up to 2.0 mg/plate, with and without metabolic activation", "protocol": "The chondroitin mutagenicity studies were conducted on different mutagenicity and genotoxicity models in vitro and in vivo (Sirtori C., File CONDRAL®, Vol. IV—Reproductive Toxicity and Mutagenesis; Slater E. et al., Rapid detection of mutagens and carcinogens, Cancer Res. 1971, 31: 970-973).\nIn vitro test, Ames' test—The test was performed with and without metabolic activation on 5 strains of Salmonella typhimurium. Chondroitin was tested at concentrations of between 2.0 μg/plate and 2.0 mg/plate."}}, "note": "“Also recorded” adds a separate entry of the source."}
{"substance": "chondroitin", "values": [{"measurement": "LD50", "setting": "[1]; acute, single dose i.v., mouse and rat", "result": "> 160", "unit": "mg/kg"}, {"measurement": "signs of toxicity or mortality", "setting": "[1]; examined every 24 h for 40 days, up to 2,000 mg/Kg p.o., 160 mg/Kg i.v.", "result": "no signs of toxicity or mortality were observed"}, {"measurement": "interaction with / alteration of DNA (DNA-repair test)", "setting": "[2]", "result": "does not interact and does not alter the DNA; also recorded: Even at higher doses it does not interact and does not alter"}, {"measurement": "chronic toxicity, conclusion", "setting": "[3]; 50 to 200 mg/Kg p.o., 26 weeks", "result": "non-toxic at the doses used"}, {"measurement": "No toxicity (dose), chronic 26 weeks", "setting": "[3]; p.o., daily for 26 weeks", "result": "No toxicity >200 mg/kg/day p.o."}, {"measurement": "Doctor: corneal inflammation", "setting": "[4]; 0 days, 3% w/v eyedrops, scale of 1 to 5, 5 optimum", "result": "1.1 ± 0.2"}, {"measurement": "Patient: absence of visual alteration", "setting": "[4]; 10 days, scale of 1 to 5", "result": "4.6 ± 0.2"}, {"measurement": "Patient: tolerability", "setting": "[4]; 10 days, scale of 1 to 5", "result": "4.7 ± 0.2"}, {"measurement": "Patient: wetting effect", "setting": "[4]; 10 days, scale of 1 to 5", "result": "4.8 ± 0.3"}, {"measurement": "Patient: absence of visual alteration", "setting": "[4]; 20 days, scale of 1 to 5", "result": "4.7 ± 0.1"}, {"measurement": "Patient: tolerability", "setting": "[4]; 20 days, scale of 1 to 5", "result": "4.5 ± 0.5"}, {"measurement": "Patient: wetting effect", "setting": "[4]; 20 days, scale of 1 to 5", "result": "4.6 ± 0.2"}, {"measurement": "Doctor: corneal inflammation", "setting": "[4]; 30 days, 3% w/v eyedrops 4 times a day, scale of 1 to 5", "result": "4.2 ± 0.3"}, {"measurement": "Patient: absence of visual alteration", "setting": "[4]; 30 days, scale of 1 to 5", "result": "4.8 ± 0.1"}, {"measurement": "Patient: tolerability", "setting": "[4]; 30 days, scale of 1 to 5", "result": "4.8 ± 0.1"}, {"measurement": "Patient: wetting effect", "setting": "[4]; 30 days, scale of 1 to 5", "result": "4.9 ± 0.1"}, {"measurement": "effect on fertility of male rats", "setting": "[5]; daily oral administration for 60 days, up to 200 mg/Kg", "result": "no effect on the fertility of male rats; also recorded: the dose of 200 mg/Kg, has no effect on the fertility of male"}, {"measurement": "effect on reproductive capacity of females", "setting": "[5]; daily up to 200 mg/Kg, 15 days before mating to 21st day of lactation", "result": "no effect on the reproductive capacity of females; also recorded: no effect on the reproductive capacity of the females"}, {"measurement": "point-reverse mutation (Ames' test)", "setting": "[6]", "result": "do not induce a specific point-reverse mutation; also recorded: Up to 2.0 mg/plate: no point-reverse mutation"}]}
